Measured values: patent US20050187208A1 (priority 2004, published 2005)
Counter-ions that a name gives are not always drawn.

How the values were obtained:
[1] = biological target: T1, transfected human CB1 receptor (Homo sapiens, UniProt P21554); assay: In-vitro determination of affinity to CB1 receptor, radioligand [^3H]-CP55940; type: binding; conditions: read-out: CB1 Receptor % Inhibition 10^−6 M
T1 construct: purchased Receptor Biology, Inc
Protocol: I. In-vitro Determination of Affinity to CB1/CB2-Rezeptors
The in-vitro determination of the affinity of the inventive substituted azetidine compounds to CB1/CB2-Receptors is carried out as described in the publication of Ruth A. Ross, Heather C. Brockie et al., “Agonist-inverse agonist characterization at CB1 and CB2 cannabinoid receptors of L-759633, L759656 and AM630”, British Journal of Pharmacology, 126, 665-672, (1999). The respective parts of the descriptions are hereby incorporated by reference and form part of the present disclosure. The transfected human CB1 and CB2 receptor are obtained from Receptor Biology, Inc. The radioligand used for both receptors is [^3H]-CP55940.
The affinity of the inventive substituted azetidine compounds to CB1/CB2 receptors is determined as described above.

cannabinoid receptors [2] = assay: Mouse tetrad model, agonistic effect (hot plate, hypothermia, catalepsy, sedation); type: in vivo; set-up: key to Agonistic effect A: Hot-Plate test: % MPE = (PT−B)/(PC−B)×100; key to Agonistic effect D: Sedation: % sedation = mean score (0-3)/3×100; Agonistic effect B: Hypothermia: unit not given here; conditions: 5 mg/kg i.v., male NMRI mice; for Agonistic effect A: Hot-Plate test: 15 minutes after injection; for Agonistic effect B: Hypothermia / Agonistic effect C: Catalepsy / Agonistic effect D: Sedation: 20 minutes after injection
Text: (§1) Substances with affinity for cannabinoid receptors are known to produce a wide range of pharmacological effects. It is also known that intravenous administration of a substance with affinity for cannabinoid receptors in mice produces analgesia, hypothermia, sedation and catalepsy. Individually, none of these effects can be considered as proof that a tested substance has affinity for cannabinoid-receptors, since all of these effects are common for various classes of centrally active agents. However, substances, which show all of these effects, i.e. substances that are active in this so-called tetrad model are considered to have affinity for the cannabinoid receptors. It has further been shown that cannabinoid receptor antagonists are higly effective in blocking the effects of a cannabinoid agonist in the mouse tetrad model.
(§2) The tetrad model is described, for example, in the publication of A. C. Howlett et al, International Union of Pharmacology XXVII. Classification of Cannabinoid Receptors, Pharmacol Rev 54, 161-202, 2002 and David R. Compton et al., “In-vivo Characterization of a Specific Cannabinoid Receptor Antagonist (SR141716A): Inhibition of Tetrahydrocannbinol-induced Responses and Apparent Agonist Activity”, J. Pharmacol. Exp. Ther. 277, 2, 586-594, 1996. The corresponding parts of the description are hereby incorporated by reference.
(§3) Male NMRI mice with a weight of 20-30 g (Harlan, Barcelona, Spain) are used in all of the following experiments.
(§4) Before testing in the behavioral procedures given below, mice are acclimatized to the experimental setting. Pre-Treatment control values are determined for analgesia hot plate latency (in seconds), rectal temperature, sedation and catalepsy.
(§5) In order to determine the agonistic activty of the substance to be tested, the mice are injected intravenously with the substance to be tested or the vehicle alone. 15 minutes after injection, latency in hot plate analgesia is measured. Rectal temperature, sedation and catalepsy are measured 20 minutes after injection.
(§6) The hot plate analgesia is determined according to the method described in Woolfe D. et al. “The evaluation of analgesic action of pethidine hydrochloride (Demerol)”, J. Pharmacol. Exp. Ther. 80, 300-307, 1944. The respective description is hereby incorporated by reference and forms part of the present disclosure.
(§7) The mice are placed on a hot plate (Harvard Analgesimeter) at 55±0.5° C. until they show a painful sensation by licking their paws or jumping and the time for these sensations to occur is recorded. This reading is considered the basal value (B). The maximum time limit the mice are allowed to remain on the hot plate in absence of any painful response is 40 seconds in order to prevent skin damage. This period is called the cut-off time (PC).
(§8) Fifteen minuts after the administration of the substance to be tested, the mice are again placed on the hot plate and the afore described procedure is repeated. This period is called the post-treatment reading (PT).
(§9) The degree of analgesia is calculated from the formula: % MPE of Analgesia=(PT−B)/(PC−B)×100 • MPE Maximum possible effect. Determination of Sedation and Ataxia
(§10) Sedation and ataxia is determined according to the method described in Desmet L. K. C. et al. “Anticonvulsive properties of.Cinarizine and Flunarizine in Rats and Mice”, Arzneim. -Forsch. (Frug Res) 25, 9, 1975. The respective description is hereby incorporated by reference and forms part of the present disclosure.
The chosen scoring system is • 0: no ataxia; • 1: doubful; • 2: obvious calmness and quiet; • 3 pronounced ataxia; prior to as well as after treatment.
The percentage of sedation is determined according to the formula: % of sedation=arithmetic mean/3×100 Hypothermia: […]

cannabinoid receptors [3] = assay: Mouse tetrad model, antagonistic effect against Win 55212-2; type: in vivo; set-up: unit not given here; conditions: 5 mg/kg i.v. prior to Win 55212-2 1.25 mg/kg i.v.; male NMRI mice
Text: as §1, §2, §3, §4, §5
In order to determine the antagonistic activity the identical procedure is used as for the determination of the agonistic effects, but with the difference that the substance to be evaluated for its antagonistic activity is injectected 5 minutes before the intravenous injection of 1.25 mg/kg Win-55,212 a known cannabinoid-receptor agonist.
as §6, §7, §8, §9, §10
The chosen scoring system is • 0: no ataxia; • 1: doubful; • 2: obvious calmness and quiet; • 3 pronounced ataxia; prior to as well as after treatment. […]

T1 sequence (P21554 whole entry): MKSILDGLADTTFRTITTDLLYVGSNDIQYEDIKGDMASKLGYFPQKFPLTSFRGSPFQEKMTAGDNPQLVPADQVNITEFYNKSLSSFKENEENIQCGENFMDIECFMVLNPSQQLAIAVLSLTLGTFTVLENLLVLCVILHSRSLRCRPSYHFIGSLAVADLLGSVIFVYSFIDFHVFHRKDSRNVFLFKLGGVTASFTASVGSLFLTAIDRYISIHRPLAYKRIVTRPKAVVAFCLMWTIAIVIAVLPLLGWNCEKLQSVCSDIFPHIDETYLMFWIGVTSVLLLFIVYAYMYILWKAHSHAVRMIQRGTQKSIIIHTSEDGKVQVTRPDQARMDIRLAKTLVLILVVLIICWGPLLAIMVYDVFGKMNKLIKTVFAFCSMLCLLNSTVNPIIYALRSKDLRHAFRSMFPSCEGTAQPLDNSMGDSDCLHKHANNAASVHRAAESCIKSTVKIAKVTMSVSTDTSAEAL

Row | Compound | melting point [°C] | other results
1 | CC(=O)c1ccc(S(=O)(=O)N[C@H]2CN(C(c3ccc(Cl)cc3)c3ccc(Cl)cc3)[C@@H]2C)cc1 (stereo in doubt) | 177 to 180 | 
2 | C[C@@H]1[C@@H](NS(=O)(=O)c2ccc(Oc3ccc(Br)cc3)cc2)CN1C(c1ccc(Cl)cc1)c1ccc(Cl)cc1 (stereo in doubt) | 115 to 119 | 
3 | C[C@H]1[C@H](NC(=O)c2cc(F)cc(F)c2)CN1C(c1ccc(Cl)cc1)c1ccc(Cl)cc1 | 57 to 60 | 
4 | C[C@@H]1[C@@H](NS(=O)(=O)c2ccc(Oc3ccccc3)cc2)CN1C(c1ccc(Cl)cc1)c1ccc(Cl)cc1 (stereo in doubt) | 160 to 162 | 
5 | C[C@@H]1[C@@H](NS(=O)(=O)c2cccc3nsnc23)CN1C(c1ccc(Cl)cc1)c1ccc(Cl)cc1 (relative stereo) [Example 15, 2,1,3-Benzothiadiazole-4-sulfonic acid {trans-1-[bis-(4-chloro-phenyl)-methyl]-2-methyl-azetidin-3-yl}-amide] |  | inhibition at 1 µM [1]: 66%; Agonistic effect A: Hot-Plate test (cannabinoid receptors [2]): 14; Agonistic effect B: Hypothermia (cannabinoid receptors [2]): 0; Agonistic effect C: Catalepsy (cannabinoid receptors [2]): 0; Agonistic effect D: Sedation (cannabinoid receptors [2]): 0; Antagonistic Effect A: Hot-Plate test (cannabinoid receptors [3]): 72; Antagonistic Effect B: Hypothermia (cannabinoid receptors [3]): 100; Antagonistic Effect C: Catalepsy (cannabinoid receptors [3]): 57; Antagonistic Effect D: Sedation (cannabinoid receptors [3]): 71
6 | C[C@@H]1[C@@H](NS(=O)(=O)c2ccc(S(C)(=O)=O)cc2)CN1C(c1ccc(Cl)cc1)c1ccc(Cl)cc1 (relative stereo) [Example 14, N-{trans-1-[Bis-(4chloro-phenyl)methyl]-2-methyl-azetidin-3-yl}-4-methylsulfonyl-benzenesulfonamide] | 202 to 204 | inhibition at 1 µM [1]: 82%; Agonistic effect A: Hot-Plate test (cannabinoid receptors [2]): 16; Agonistic effect B: Hypothermia (cannabinoid receptors [2]): 0; Agonistic effect C: Catalepsy (cannabinoid receptors [2]): 0; Agonistic effect D: Sedation (cannabinoid receptors [2]): 0; Antagonistic Effect A: Hot-Plate test (cannabinoid receptors [3]): 12; Antagonistic Effect B: Hypothermia (cannabinoid receptors [3]): 71; Antagonistic Effect C: Catalepsy (cannabinoid receptors [3]): 14; Antagonistic Effect D: Sedation (cannabinoid receptors [3]): 9
7 | Cc1c(S(=O)(=O)N[C@H]2CN(C(c3ccc(Cl)cc3)c3ccc(Cl)cc3)[C@@H]2C)sc2ccc(Cl)cc12 (stereo in doubt) | 105 to 108 | 
8 | C[C@@H]1[C@@H](NS(=O)(=O)c2ccc(-c3ccccc3)cc2)CN1C(c1ccc(Cl)cc1)c1ccc(Cl)cc1 (relative stereo) | 145 to 148 | 
9 | C[C@@H]1[C@@H](NS(=O)(=O)c2ccc(F)cc2)CN1C(c1ccc(Cl)cc1)c1ccc(Cl)cc1 [Example 33, N-{(2R,3S)-1-[Bis-(4-chloro-phenyl)-methyl]-2-methyl-azetidin-3-yl}-4-fluoro-benzenesulfonamide] | 154 to 158 | inhibition at 1 µM [1]: 71%
10 | C[C@H]1[C@H](NC(=O)C2CCCCC2)CN1C(c1ccc(Cl)cc1)c1ccc(Cl)cc1 | 65 to 68 | 
11 | C[C@@H]1[C@@H](N(Cc2ccc(F)cc2)S(=O)(=O)c2ccc(F)cc2)CN1C(c1ccc(Cl)cc1)c1ccc(Cl)cc1 (stereo in doubt) | 75 to 78 | 
12 | C[C@@H]1[C@@H](NS(=O)(=O)c2cccc3ccccc23)CN1C(c1ccc(Cl)cc1)c1ccc(Cl)cc1 (stereo in doubt) | 171 to 174 | 
13 | Cc1nn(C)c(C)c1S(=O)(=O)N[C@H]1CN(C(c2ccc(Cl)cc2)c2ccc(Cl)cc2)[C@@H]1C | 173 to 175 | 
14 | C[C@H]1[C@H](N)CN1C(c1ccc(Cl)cc1)c1ccc(Cl)cc1 (stereo in doubt) | 134 to 136 | 
15 | C[C@@H]1[C@@H](NS(=O)(=O)c2cc(Cl)cc(Cl)c2)CN1C(c1ccc(Cl)cc1)c1ccc(Cl)cc1 (relative stereo) [Example 18, N-{trans-1-[Bis-(4-chloro-phenyl)-methyl]-2-methyl-azetidin-3-yl}-3,5-dichloro-benzenesulfonamide] | 144 to 146 | inhibition at 1 µM [1]: 95%
16 | C[C@H]1C(NS(=O)(=O)c2ccc(F)cc2)CN1C(c1ccc(Cl)cc1)c1ccc(Cl)cc1 (mixture of isomers) | 154 to 157 | 
17 | C[C@@H]1[C@@H](NS(=O)(=O)c2ccc3ccccc3c2)CN1C(c1ccc(Cl)cc1)c1ccc(Cl)cc1 (stereo in doubt) | 156 to 160 | 
18 | C[C@@H]1C(N(C)S(=O)(=O)c2ccc(F)cc2)CN1C(c1ccc(Cl)cc1)c1ccc(Cl)cc1 (stereo in doubt) | 182 to 186 | 
19 | C[C@@H]1[C@@H](NS(=O)(=O)CCc2cccc3ccccc23)CN1C(c1ccc(Cl)cc1)c1ccc(Cl)cc1 (stereo in doubt) | 123 to 128 | 
20 | C[C@@H]1[C@@H](N(S(=O)(=O)c2ccc(F)cc2)S(=O)(=O)c2ccc(F)cc2)CN1C(c1ccc(Cl)cc1)c1ccc(Cl)cc1 | 60 to 64 | 
21 | CCCN([C@H]1CN(C(c2ccc(Cl)cc2)c2ccc(Cl)cc2)[C@@H]1C)S(=O)(=O)c1ccc(F)cc1 (stereo in doubt) | 91 to 97 | 
22 | C[C@H]1[C@H](NC(=O)C(F)(F)F)CN1C(c1ccc(Cl)cc1)c1ccc(Cl)cc1 (stereo in doubt) (as salt: TFA) | 122 to 127 | 
23 | C[C@@H]1[C@@H](OS(=O)(=O)c2ccc(F)cc2)CN1C(c1ccc(Cl)cc1)c1ccc(Cl)cc1 (relative stereo) [Example 1, 4-Fluoro-benzenesulfonic acid-trans-1-[bis-(4-chloro-phenyl)-methyl]-2-methyl-azetidin-3-yl ester] | 105 to 107 | inhibition at 1 µM [1]: 60%; Antagonistic Effect A: Hot-Plate test (cannabinoid receptors [3]): 46; Antagonistic Effect C: Catalepsy (cannabinoid receptors [3]): 47
24 | Cc1c(S(=O)(=O)N[C@H]2CN(C(c3ccc(Cl)cc3)c3ccc(Cl)cc3)[C@@H]2C)cnn1-c1ccccc1 (stereo in doubt) | 173 to 176 | 
25 | C[C@@H]1[C@@H](NS(=O)(=O)c2c(Cl)nc3sccn23)CN1C(c1ccc(Cl)cc1)c1ccc(Cl)cc1 (relative stereo) | 164 to 169 | 
26 | C[C@@H]1[C@@H](NS(=O)(=O)c2csc3ccccc23)CN1C(c1ccc(Cl)cc1)c1ccc(Cl)cc1 (relative stereo) [Example 25, Benzo[b]thiophene-3-sulfonic acid {trans-1-[bis-(4-chloro-phenyl)-methyl]-2-methyl-azetidin-3-yl}amide] | 192 to 197 | inhibition at 1 µM [1]: 87%
